From patent US20250345492A1, “AN ANTIBACTERIAL POLYPEPTIDE COMPOUND, A MEDICAL DEVICE, HYDROGEL AND USE THEREOF” (priority 2020, published 2025)
Ends that are not written are not given here.

Key:
[1] = tested on: E. coli (ATCC 25922); test: Mouse septic peritonitis model, survival; format: in vivo, Kunming mice; settings: 20 mg/kg intraperitoneally one hour after E. coli inoculation, 7 days of observation
Procedure: The determination of the in vivo antibacterial activity of the antibacterial polypeptide compounds is to reflect the antibacterial activity in vivo by detecting the survival rate of mice infected with bacteria or fungi.
Taking compounds 2, 8, 9, 13 and 15 of the present invention as examples, the in vivo antibacterial effects of the antibacterial polypeptide compounds were analyzed. The mice used in this test were Kunming mice, which were placed in constant-temperature environment (22±1° C.). Simply, 36 Kunming mice (18-22 g of body weight) were randomly divided into 6 groups and intraperitoneally injected with 0.2 ml of 3×10^8 CFU/mL E. coli (ATCC 25922) on Day 1 to establish mouse septic peritonitis model. The mice were administered intraperitoneally one hour after inoculation with the bacteria, and then the compounds 2, 8, 9, 13 and 15 were injected intraperitoneally at a dose of 20 mg/kg of body weight. Polymyxin B (20 mg/kg) was selected as a positive reference control, and a negative control group received intraperitoneal injection of sterile saline. After 7 days of observation, the survival rates of mice in administration groups and control groups were calculated to create survival curves.

[2] = tested on: E. coli (ATCC 25922); test: Outer membrane permeability, NPN probe; format: cell-based; settings: 1×MIC to 8×MIC, NPN fluorescence, 15 min
Procedure: The destruction of bacterial cell OM was determined by using hydrophobic fluorescent probe NPN (1-N-phenylnaphthylamine) to determine the effect of the compounds on the OM permeability of E. coli (ATCC 25922).
Taking compounds 2, 8, 9, 13 and 15 of the present invention as examples, the OM permeability of E. coli with the presence of the antibacterial polypeptide compounds was analyzed. E. coli cells were washed twice with PBS solution and resuspended in 5 mM HEPES (pH 7.2), and then diluted to a concentration of […]. […] The excitation wavelength and emission wavelength were set to 350 nm and 420 nm, separately, and the cells were detected once every minute using a multifunctional ELISA reader within a 15-min period of time.

[3] = tested on: mouse mononuclear macrophage RAW264.7; test: Cytotoxicity, MTT colorimetry; format: cell-based
Procedure: (§1) For cytotoxicity determination, the MTT colorimetry was used to evaluate the effects of the compounds on the proliferation of human cervical cancer cell Hela, human embryonic renal epithelial cell HEK293 and mouse mononuclear macrophage RAW264.7.
(§2) Taking compounds 2, 8, 9, 13 and 15 of the present invention as examples, the cytotoxicity of the antibacterial polypeptide compounds was analyzed. Three cell lines were employed for the present invention, namely human cervical cancer cell Hela, human embryonic renal epithelial cell HEK293 and mouse mononuclear macrophage RAW264.7. Hela cells were cultured in RPMI 1640 medium with 10% newborn calf serum, HEK293 cells and RAW264.7 cells were cultured in DMEM medium with 10% fetal bovine serum. Simply, cells (1×10^4 cells/well) were inoculated to a 96-well plate and incubated in an incubator set to 5% CO2 at 37° C. After 24 hours, compounds of different concentrations were added and incubated in the 5% CO2 incubator. After 24 hours, 20 μL of MTT solution with a concentration of 5 mg/mL was added to each well and incubated for 4 hours. After that, the medium was removed with a pipet, and 150 μL of DMSO added to dissolve the purple-blue formazan crystals. The solution was shaken in an oscillator for 5 mins before detecting the absorbance value at 570 nm using the ELISA reader, and then the survival rate was calculated with the formula: (OD dosing group/OD control group)×100% (n=3).

[4] = tested on: human cervical cancer cell Hela; test: Cytotoxicity, MTT colorimetry; format: cell-based
Procedure: as §1, §2

[5] = tested on: human embryonic renal epithelial cell HEK293; test: Cytotoxicity, MTT colorimetry; format: cell-based
Procedure: as §1, §2

Pro-Phe-Lys-Leu-Ser-Leu-His-Leu-NH2 (PFKLSLHL-NH2) [Compound J-1, reference compound]
survival rate of mice [1]: about 50% | OM permeability of E. coli [2]: destroy the integrity of the E. coli OM in a dose-dependent manner

Pro-Trp-Orn-Leu-Orn-Leu-His-Leu-NH2 (PWXLXLHL; HELM PEPTIDE1{P.W.[Orn].L.[Orn].L.H.L.[am]}$$$$V2.0; N-terminus assumed; SMILES CC(C)C[C@H](NC(=O)[C@H](Cc1c[nH]cn1)NC(=O)[C@H](CC(C)C)NC(=O)[C@H](CCCN)NC(=O)[C@H](CC(C)C)NC(=O)[C@H](CCCN)NC(=O)[C@H](Cc1c[nH]c2ccccc12)NC(=O)[C@@H]1CCCN1)C(N)=O) [Compound 9]
effect on proliferation (inhibitory activity) [3]: no inhibitory activity | effect on proliferation (inhibitory activity) [4]: no inhibitory activity | effect on proliferation (inhibitory activity) [5]: no inhibitory activity | OM permeability of E. coli [2]: destroy the integrity of the E. coli OM in a dose-dependent manner
